For assay [1], the target named is T1, mature myostatin (Mus musculus, UniProt O08689).
T1 sequence (O08689 268-376): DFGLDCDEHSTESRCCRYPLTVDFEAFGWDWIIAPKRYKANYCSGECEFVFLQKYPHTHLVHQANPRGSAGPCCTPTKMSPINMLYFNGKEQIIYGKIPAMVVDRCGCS
Description: ELISA-type test of direct interaction of biotinylated fibromodulin peptides with coated myostatin. The format is binding. The note with it: FIG. 3. An excerpt: The ELISA test (Enzyme Linked ImmunoSorbent Assay) is a test for detecting and/or assaying a protein present in a biological fluid. In the technique known as “sandwich” assay, the wells of a microtiter plate are covered with a capture antibody capable of binding specifically to the desired antigen. During this operation called “coating”, the capture antibody binds to the plastic of the wells by electrostatic interaction. The capture antibody ensures the specificity of the test. The solution to be tested is then deposited into the wells of the microtiter plate and, if the desired antigen is present, it will bind specifically to the capture antibody. A second antibody, the tracer antibody, capable of binding to the captured antigen is then added to the wells, and the unbound tracer antibodies are eliminated by rinsing. The tracer antibody is coupled to an enzyme catalyzing the formation of a colored product.
The principle of this technique was used to study the direct interaction of the mature myostatin with the peptides 69-101 Fmod Biotin and 69-101 Fmod Biotin mutated (see sequences below). For this, 3 μl of myostatin at a concentration of 100 ng/μl are taken up in 50 μl of carbonate buffer and added to each well of the assay plate (R&D Systems DY990). After an overnight incubation at 4° C., the plate is washed with 100 μl of PBS-Tween (0.05% Tween 20), then the blocking step to saturate non-specific sites is carried out for 2 hours at room temperature with 100 μl of PBS and 6% of milk per well. Five successive washes with 200 μl of PBS-Tween (0.05% Tween 20) are performed and increasing amounts of biotinylated fibromodulin peptides are then deposited (100 μl final in PBS) and the plate is incubated for 1 hour at 37° C. For the positive control, an antibody of goat anti-myostatin (≠AF788, R&D Systems), which was deposited in the control wells and incubated for 1 hour at 1/100th (0.1 mg/ml) was […]. The wells were then washed 5 times with PBS-Tween (0.05% Tween 20). To detect binding of the biotinylated peptides to MSTN, streptavidin-HRP (≠N100, Pierce) was used at 1/20,000th. was added to the wells. For the controls points with the goat anti-myostatin antibody, an HRP-marked (≠ab6885, Abcam) polyclonal secondary donkey anti-goat antibody was added (at 1/4000th)). After five washes, adding the peroxidase substrate, the TMB Substrate Reagent Set (Tetramehylbenzidine, OptEIA, ≠555214) allows the obtention of a colored reaction proportional to the quantity of HRP present in the wells. The reaction is stopped after 20 minutes by addition of sulfuric acid 2N, and the plate is read at 450 nm on a Discovery HT-R spectrophotometer (Bio-TEK).
Buffer Composition: 0.1 M carbonate buffer: 4.2 g NaHCO3, 1.78 g of […] in 500 ml of H20 MilliQ, pH 9,5. Storage at 4° C.
In general terms: In an ELISA, binding on a coated surface is turned into a signal by an enzyme label.

In assay [2] the target is T2, recombinant murine myostatin (Mus musculus, UniProt O08689).
T2 sequence (O08689 268-376): T1 sequence (O08689 268-376)
Put plainly: Inhibition of myostatin activity, pGL3-(CAGA)12-Luc reporter in HEK293T cells. It counts as cell-based. The note with it: 2.5 nM myostatin, FIG. 1 and 2. An excerpt: The plasmidic construction pGL3-(CAGA)12-firefly luciferase (notated pGL3-(CAGA)12-Luc) obtained by MTA of the Pr. Carl-Henrik Heldin (Ludwig Institute for Cancer Research, Sweden) contains 12 CAGA copies of the consensus SBE (Smad Binding Element) consensus sequence and allows to indirectly measure the binding of myostatin to its receptor. Indeed, when myostatin binds to the receptor Activin IIb, the Smad 3 and 4 proteins are activated and will bind to the 12 CAGA copies. The promoter of the cassette pGL3-(CAGA)12-Luc is thus activated, which results in luciferase production. The myostatin/Activin IIb binding can be followed, therefore, by measuring the luciferase.
The ability of the peptides to inhibit the in vitro activity of the myostatin has been evaluated on embryonic human kidney cells 293T by means of the pGL3-(CAGA)12-Luc construction. For this, 350,000 293T cells were placed per well in a 24-well plate. After 24 hours of culture, the cells were transfected with a mixture of 8 μl de PEI (PEI 25 kDa; Sigma) and 2 μg of plasmide pGL3-(CAGA)12-Luc/well. […] Twenty-four hours after transfection, 2.5 nM of recombinant murine myostatin, mixed or not mixed with various quantities of fibromodulin or lumican peptides were added to each well. […] Twenty-four hours after incubation, the cells were lysed, then collected to be assayed for luciferase activity and the quantity of protein.

The test system of assay [3] is mdx mice. Description: Comparative muscle hypertrophy 18 days after intramuscular injection of peptides in dystrophic mdx mice. The format is in vivo. The note with it: for Hypertrophy %: 18 days after IM injection, average of five mdx mice, TAG versus TAD; for increase in muscular hypertrophy, factor compared to decorin: day 18, mdx mice. The protocol:
(§1) Mdx mice (C57BL/10ScSn-DmD^max/J) from colonies maintained at Genethon. Mice aged at least six weeks were used. All experiments were performed in accordance with European ethical rules regarding the use of animals for experimental research.
(§2) Intramuscular injection is performed on animals anesthetized at the tibialis anterior muscle (TA). The injected volume was around 20-35 μl. The injection is performed in the middle of TA Left (TAG). An equal volume of NaCl 150 mM/15 μM ZnCl2 was systematically injected into the right anterior tibialis (TAD) to serve as a control. After a specified number of days after the injection, the TAD and TAG were taken after sacrificing the mice, which were weighed and frozen for histological studies.
The peptide fibromodulin (Fmod, SEQ ID NO: 2) and lumican (mLumican, SEQ ID NO: 5) were dissolved in water and stored at −80° C. For the injections, the preparation procedure is as follows: 24-40 hours before the injection, the desired quantity of peptide is removed from the stock solution and mixed with a solution of zinc chloride (ZnCl2) and 150 mM NaCl so as to have a final concentration of 15 μM of zinc. The peptide was stored at 4° C. until injection.
4/In vivo Comparative Study of Muscle Hypertrophy 18 Days after Injection of Dystrophic mdx Mice with Decorin Peptide (MdCN 31-71, SEQ ID NO: 75), Fibromodulin (mFmod 69-101) or lumican (mLum 30-62):
The TAD and TAG muscles were removed 18 days after injection of the peptides, and then weighed. The experiment was performed on five separate mice.

Assay [4] concerns mdx mice. Description: Muscle weight on D20 after intramuscular injection into Tibialis Anterior of mdx mice. The format is in vivo. The note with it: D20, individual mdx mice. As to the method:
as §1, §2
The peptide fibromodulin (Fmod, SEQ ID NO: 2) and lumican (mLumican, SEQ ID NO: 5) were dissolved in water and stored at −80° C. For the injections, the preparation procedure is as follows: 24-40 hours before the injection, the desired quantity of peptide is removed from the stock solution and mixed with a solution of zinc chloride (ZnCl2) and 150 mM NaCl so as to have a final concentration of 15 μM of zinc. The peptide was stored at 4° C. until injection. […]
On D20, the mice were sacrificed and the weight of the TAG and TAD muscles was measured.

Where “and” joins values, the source holds several entries; their conditions need not be identical. Identical values can stand only once.

On to “Biotine-PPPEPRDCPQEADAPPNFPTAMYADNRNLKYLP- CONH2 [mutated biotin mFmod peptide]”, for which the “interaction with myostatin (absorbence at 450 nm)” value (shortened to “interaction with myostatin”) in assay [1] (in the presence of zinc) is “no interaction is visible”.

In the case of “Biotine-PPPEPRDCPQECDCPPNFPTAMYCDNRNLKYLP-CONH2 [biotinylated mFmod 69-101]”, in assay [1] (in the presence of zinc), the “interaction with myostatin” value was “direct interaction takes place”.

For “PPPEPRDCPQECDCPPNFPTAMYCDNRNLKYLP (69-101 mouse fibromodulin Fmod) [mFmod 69-101, fragment corresponding to residues 69-101 of murine fibromodulin]”, the “interaction with myostatin” value in assay [1] (in the absence of zinc) is recorded as “no interaction is seen”. In assay [1] (in the presence of zinc), the “amount of peptide from which a plateau of absorbence is obtained” value was at least 4.2 µg. The “induction of the pCAGA-Luc promoter (inhibition of myostatin activity)” value in assay [2] was “net inhibition of the promoter in a dose-dependent manner”. Also, in assay [3], the Hypertrophy % stood at 29.34 ± 15.76% and the “increase in muscular hypertrophy, factor compared to decorin” value was 2.9. The “Weight of injected muscle (TAG)” value in assay [4] (50 μg peptide + 15 μM ZnCl2 IM in left Tibialis Anterior) is 66.5 mg and 75.4 mg and 74.6 mg and 65.2 mg and 73.9 mg. Further, in assay [4] (50 μg peptide + 15 μM ZnCl2 IM), the “Growth (TAG versus control TAD)” value was 22.24% and 5.31% and 19.94% and 5.33% and 12.31%.

Turning to “YGQISPNCAPECNCPHSYPTAMYCDDLKLKSVP (30-62 mouse lumican) [mLum 30-62, fragment corresponding to residues 30 to 62 of murin lumican]”, the “induction of the pCAGA-Luc promoter (inhibition of myostatin activity)” value in assay [2] is recorded as “net inhibition of the promoter in a dose-dependent manner”. In assay [3], the Hypertrophy % is on record as 37.26 ± 14.69% and the “increase in muscular hypertrophy, factor compared to decorin” value came out at 3.7.

“mDCN 31-71: Decorin Peptide (MdCN 31-71, SEQ ID NO: 75), comparator from prior art WO 2010/106295 (DEASGIIPYDPDNPLISMCPYRCQCHLRVVQCSDLGLDKVP; 31-71 mouse decorin fragment) [reference compound]”: the Hypertrophy % in assay [3] is given as 10.02 ± 8.3%.

The values above are taken from US9175055B2, “Use of fibromodulin and lumican for increasing muscle mass” (ASSOCIATION FRANCAISE CONTRE LES MYOPATHIES, priority 2011, dated 2015).
